Measurements: patent publication US10947213B1 (Merck Patent GmbH, priority 2015, dated 2021)
Counter-ions that a name gives are not always drawn.

Biological target: T1, TLR7/NFKb HEK cells (Homo sapiens, UniProt Q9NYK1)
T1 construct: expressed in transfected cells; host or cells: HEK cells (TLR7/NFKb reporter line)
T1 sequence (Q9NYK1 27-1049): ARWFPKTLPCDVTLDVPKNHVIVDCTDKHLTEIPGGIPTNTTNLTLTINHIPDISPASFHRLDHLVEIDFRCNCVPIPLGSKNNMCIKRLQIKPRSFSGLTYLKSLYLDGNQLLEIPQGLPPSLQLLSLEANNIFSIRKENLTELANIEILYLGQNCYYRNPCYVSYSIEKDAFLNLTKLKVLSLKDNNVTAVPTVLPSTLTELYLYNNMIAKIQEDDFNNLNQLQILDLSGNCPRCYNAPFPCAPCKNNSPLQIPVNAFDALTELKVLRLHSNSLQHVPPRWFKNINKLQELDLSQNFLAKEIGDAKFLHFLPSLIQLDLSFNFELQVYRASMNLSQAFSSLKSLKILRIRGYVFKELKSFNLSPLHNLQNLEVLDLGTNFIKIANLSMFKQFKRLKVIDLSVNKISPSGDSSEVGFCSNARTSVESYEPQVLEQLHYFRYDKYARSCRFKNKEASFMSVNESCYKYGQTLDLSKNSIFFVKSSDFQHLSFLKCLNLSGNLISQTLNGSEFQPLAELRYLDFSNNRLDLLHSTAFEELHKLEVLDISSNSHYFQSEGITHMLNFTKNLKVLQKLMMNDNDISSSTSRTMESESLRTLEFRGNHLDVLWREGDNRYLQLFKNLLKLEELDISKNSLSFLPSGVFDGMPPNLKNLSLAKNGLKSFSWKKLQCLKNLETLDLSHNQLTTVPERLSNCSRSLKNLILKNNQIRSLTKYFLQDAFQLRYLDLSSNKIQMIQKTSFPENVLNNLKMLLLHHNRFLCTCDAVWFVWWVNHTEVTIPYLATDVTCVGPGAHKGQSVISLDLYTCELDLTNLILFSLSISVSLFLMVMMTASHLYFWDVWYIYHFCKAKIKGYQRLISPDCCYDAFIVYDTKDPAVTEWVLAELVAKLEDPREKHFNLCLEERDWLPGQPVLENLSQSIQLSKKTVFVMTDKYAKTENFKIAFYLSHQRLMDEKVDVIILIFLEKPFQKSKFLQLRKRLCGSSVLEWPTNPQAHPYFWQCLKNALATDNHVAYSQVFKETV
Assay: HEK Cell Assay (TLR7/NFKb reporter, Steady-Glo luciferase readout)
Type: cell-based
Conditions: 30 min compound preincubation, then R*48 agonist for 5 hours, read-out: Potency
Description: Example 142: HEK Cell Assay
Into 384 CulturePlates (Corning 3707) was placed 5000 c/w of TLR7/NFKb HEK cells in 30 uL DMEM without Phenil red (gibco #31053) and 10% i.a. FCS and 2 mM L-ZGLutamin. The cells were incubated for 24 h at 37° C., 10% carbon dioxide and 90% relative humidity. 3 uL of controls, standards, and compounds were dispensed into wells, incubated for 30 min then 3 uL of R*48 agonist in 20 mM Hepes was added. After incubation for 5 hours, they were allowed to stand at room temperature for 15 min. To this was added 10 uL of Steady-Glo substrate reagent and shake assay plate for 5 min at 1500 rpm. The assay plate was allowed to sit for 30 min at room temperature and then the plate was read on EnVision.

SMILES	IC50
CC(C)[C@H](O)C(=O)N[C@H]1C[C@@H](C(F)(F)F)CN(c2ccnc3nccnc23)C1 [Compound 90, (2S)-2-hydroxy-3-methyl-N-[(3S,5R)-1-[pyrido[2,3-b]pyrazin-8-yl]-5-(trifluoromethyl)piperidin-3-yl]butanamide hydrochloride]	> 10000 nM
CCC(C)C(=O)N[C@@H]1C[C@H](C)CN(c2ccc(C#N)c3nccnc23)C1 (single isomer, unassigned) [Compound 155]	1000 to 10000 nM
O=C(NCCN1CCCCC1)C1CCN(c2ccnc3nccnc23)CC1 [Compound 373, 1-Pyrido[2,3-b]pyrazin-8-yl-piperidine-4-carboxylic acid (2-piperidin-1-yl-ethyl)-amide]	1000 to 10000 nM
Cc1cc(F)c(N2C[C@@H](C)C[C@@H](N)C2)c2cccnc12 [Compound 489, (3R,5S)-1-(6-Fluoro-8-methyl-quinolin-5-yl)-5-methyl-piperidin-3-ylamine]	< 1000 nM
N[C@H]1C[C@@H](C2CC2)CN(c2ccc(C(F)F)c3ncccc23)C1 (relative stereo) [Compound 332, cis-5-cyclopropyl-1-[8-(difluoromethyl)quinolin-5-yl]piperidin-3-amine]	< 1000 nM
N#Cc1ccc(N2C[C@@H](N)C[C@@H](F)C2)c2nccnc12 [Compound 501, 8-((3S,5R)-3-Amino-5-fluoro-piperidin-1-yl)-quinoxaline-5-carbonitrile hydrochloride]	> 10000 nM
Cc1ncc(N2C[C@@H](C)C[C@@H](NC(=O)CCC(N)=O)C2)c2cccnc12 [Compound 564, N-[(3R,5S)-5-Methyl-1-(8-methyl-[1,7]naphthyridin-5-yl)-piperidin-3-yl]-succinamide]	> 10000 nM
CC(Cl)C(=O)NC1CN(c2ccc(C#N)c3nccnc23)CC(F)(F)C1 (centres unmarked) [Compound 506, 2-Chloro-N-[1-(8-cyano-quinoxalin-5-yl)-5,5-difluoro-piperidin-3-yl]-propionamide]	1000 to 10000 nM
C[C@H]1C[C@@H](NC(=O)CN)CN(c2ccnc3nccnc23)C1 [Compound 34, 2-amino-N-((3R,5S)-5-methyl-1-(pyrido[2,3-b]pyrazin-8-yl)piperidin-3-yl)acetamide]	> 10000 nM
CC(O)C(=O)N[C@@H]1C[C@H](C)CN(c2ccc(C(F)F)c3nccnc23)C1 (stereo partly drawn) [Compound 79, N-[(3R,5S)-1-[8-(difluoromethyl)quinoxalin-5-yl]-5-methylpiperidin-3-yl]-2-hydroxypropanamide]	1000 to 10000 nM
CC(C(=O)N[C@@H]1C[C@H](C)CN(c2ccc(C(F)F)c3ncccc23)C1)N1CCC(O)CC1 (stereo partly drawn) [Compound 313, N-[(3R,5S)-1-[8-(difluoromethyl)quinolin-5-yl]-5-methylpiperidin-3-yl]-2-(4-hydroxypiperidin-1-yl)propanamide]	< 1000 nM
CC(CN(C)C)NC(=O)C1CCN(c2ccc(C#N)c3ncccc23)CC1 (centres unmarked) [Compound 420, 1-(8-Cyano-quinolin-5-yl)-piperidine-4-carboxylic Acid (2-dimethylamino-1-methyl-ethyl)-amide]	< 1000 nM
Cc1cnc2c(N3C[C@@H](C)C[C@@H](N)C3)ccc(C#N)c2n1 [Compound 525, 8-((3R,5S)-3-Amino-5-methyl-piperidin-1-yl)-3-methyl-quinoxaline-5-carbonitrile]	< 1000 nM
O=C(NC1CCN(CC2CC2)C1)C1CCN(c2ccc(C(F)(F)F)c3ncccc23)CC1 (single isomer, unassigned) [Compound 445]	< 1000 nM
CN1CCC(NC2CC(C(F)(F)F)CN(c3ccc(C#N)c4nccnc34)C2)C1=O (single isomer, unassigned) [Compound 227]	1000 to 10000 nM
NC1CN(c2ccc(C(F)(F)F)c3ncccc23)CC(F)(F)C1 (single isomer, unassigned) [Compound 528]	1000 to 10000 nM

SMILES	IC50
C[C@@H]1CN(c2ccnc3nccnc23)C[C@H](CN2CCC(N3CCCCC3)CC2)O1 [Compound 58, (2S,6R)-2-(1,4′-bipiperidin-1′-ylmethyl)-6-methyl-4-(pyrido[2,3-b]pyrazin-8-yl)morpholine]	< 1000 nM
CN1CCC(N[C@H]2CN(c3ccc(C#N)c4nccnc34)CC(C)(C)C2)C1=O (stereo partly drawn) [Compound 219, 8-[(5R)-3,3-dimethyl-5-[(1-methyl-2-oxopyrrolidin-3-yl)amino]piperidin-1-yl]quinoxaline-5-carbonitrile]	< 1000 nM
C[C@H]1C[C@@H](NC(=O)[C@H](C)N)CN(c2ccc(C#N)c3nccnc23)C1 [Compound 25, (S)-2-amino-N-((3R,5S)-1-(8-cyanoquinoxalin-5-yl)-5-methylpiperidin-3-yl)propanamide]	< 1000 nM
COCCN[C@@H]1C[C@H](C)CN(c2ccc(OC)c3nccnc23)C1 [Compound 67, (3R,5S)—N-(2-methoxyethyl)-1-(8-methoxyquinoxalin-5-yl)-5-methylpiperidin-3-amine]	< 1000 nM
C[C@H]1C[C@@H](NC(=O)CNS(C)(=O)=O)CN(c2ccc(C#N)c3nccnc23)C1 [Compound 140, N-[(3R,5S)-1-(8-cyanoquinoxalin-5-yl)-5-methylpiperidin-3-yl]-2-methanesulfonamidoacetamide]	< 1000 nM
CC(C)(C)CC(=O)N[C@H]1C[C@@H](C(F)(F)F)CN(c2ccc(C#N)c3nccnc23)C1 (relative stereo) [Compound 85, cis-N-[1-(8-cyanoquinoxalin-5-yl)-5-(trifluoromethyl)piperidin-3-yl]-3,3-dimethylbutanamide]	< 1000 nM
CC(C)C(C)C(=O)N[C@@H]1C[C@H](C)CN(c2ccc(C#N)c3nccnc23)C1 (stereo partly drawn) [Compound 167, N-[(3R,5S)-1-(8-cyanoquinoxalin-5-yl)-5-methylpiperidin-3-yl]-2,3-dimethylbutanamide]	< 1000 nM
C[C@H]1C[C@@H](NC(=O)CC2CCN(C)CC2)CN(c2ccc(C(F)F)c3ncccc23)C1 [Compound 316, N-[(3R,5S)-1-[8-(difluoromethyl)quinolin-5-yl]-5-methylpiperidin-3-yl]-2-(1-methylpiperidin-4-yl)acetamide]	< 1000 nM
C[C@H]1C[C@@H](NC(=O)CC2CCN(C)CC2)CN(c2ccc(F)c3ncccc23)C1 [Compound 471, N-[(3R,5S)-1-(8-Fluoro-quinolin-5-yl)-5-methyl-piperidin-3-yl]-2-(1-methyl-piperidin-4-yl)-acetamide]	< 1000 nM
C[C@@H]1CN(c2ccnc3nccnc23)C[C@H](CN2CCC(N3CCOCC3)CC2)O1 [Compound 60, (2R,6S)-2-methyl-6-((4-morpholinopiperidin-1-yl)methyl)-4-(pyrido[2,3-b]pyrazin-8-yl)morpholine]	1000 to 10000 nM
C[C@@H]1CN(c2ccnc3nccnc23)C[C@H](C(=O)NC2CCN(C)CC2)O1 [Compound 65, (2R,6R)-6-methyl-N-(1-methylpiperidin-4-yl)-4-(pyrido[2,3-b]pyrazin-8-yl)morpholine-2-carboxamide]	< 1000 nM
C[C@H]1C[C@@H](NC(=O)CC2CN(C)C2)CN(c2ccc(C(F)(F)F)c3ncccc23)C1 [Compound 360, N-[(3R,5S)-5-methyl-1-[8-(trifluoromethyl)quinolin-5-yl]piperidin-3-yl]-2-(1-methylazetidin-3-yl)acetamide]	< 1000 nM
CNCC(=O)N[C@@H]1C[C@H](C)CN(c2ccnc3nccnc23)C1 [Compound 29, N-((3R,5S)-5-methyl-1-(pyrido[2,3-b]pyrazin-8-yl)piperidin-3-yl)-2-(methylamino)acetamide]	> 10000 nM
O=C(CN1CCCCC1)NCC1CCN(c2ccnc3nccnc23)CC1 [Compound 388, 2-Piperidin-1-yl-N-(1-pyrido[2,3-b]pyrazin-8-yl-piperidin-4-ylmethyl)-acetamide]	1000 to 10000 nM
CC(C(=O)N[C@@H]1C[C@H](C)CN(c2ccc(C(F)(F)F)c3nccnc23)C1)N1CC(F)(F)C1 (stereo partly drawn) [Compound 299, 2-(3,3-difluoroazetidin-1-yl)-N-[(3R,5S)-5-methyl-1-[8-(trifluoromethyl)quinoxalin-5-yl]piperidin-3-yl]propanamide]	1000 to 10000 nM
N[C@H]1C[C@@H](C2CC2)CN(c2ccc(F)c3nccnc23)C1 (relative stereo) [Compound 366, cis-5-cyclopropyl-1-(8-fluoroquinoxalin-5-yl)piperidin-3-amine]	1000 to 10000 nM
